Reference: PubChem BioAssay AID200 (DTP/NCI, 2004)
Several values for one entry are separate records, joined by “and”; a condition that tells them apart may be missing. Equal values may be shown once. Inconclusive results and toxic doses are left out.

Tested on: B6C3F1 mice, B16 melanoma ip, median survival T/C
Assay: NCI In Vivo Anticancer Drug Screen. Data for tumor model B16 Melanoma (intraperitoneal) in B6C3F1 mice
Settings: endpoint: median survival time, higher = longer survival
Method in brief: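 Values are T/C ratios: the measurement in treated animals divided by that in vehicle-treated controls, using survival or tumor size in mice carrying transplantable tumors.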

[1] = dose: 12.5 mg/kg/injection, schedule: Q01DX009 (ip), vehicle: saline
[2] = dose: 25.0 mg/kg/injection, schedule: Q01DX009 (ip), vehicle: saline
[3] = dose: 3.12 mg/kg/injection, schedule: Q01DX009 (ip), vehicle: saline with Tween-80
[4] = dose: 6.25 mg/kg/injection, schedule: Q01DX009 (ip), vehicle: saline with Tween-80
[5] = dose: 100.0 mg/kg/injection, schedule: Q01DX009 (ip), vehicle: saline with Tween-80
[6] = dose: 200.0 mg/kg/injection, schedule: Q01DX009 (ip), vehicle: saline with Tween-80

What does the source list for `COC(=O)C(N)Cc1ccc(O)c(O)c1` (configuration not stated)?
T/C [1]: 102 % of control; T/C [2]: 88 % of control and 102 % of control; T/C (dose: 25.0 mg/kg/injection, schedule: Q01DX012 (ip), vehicle: saline): 95 % of control; T/C (dose: 25.0 mg/kg/injection, schedule: Q01DX024 (ip), vehicle: saline): 95 % of control; T/C (dose: 25.0 mg/kg/injection, schedule: Q08HX120 (ip), vehicle: saline): 112 % of control; T/C (dose: 50.0 mg/kg/injection, schedule: Q01DX009 (ip), vehicle: saline): 90 % of control and 100 % of control; T/C (dose: 50.0 mg/kg/injection, schedule: Q01DX012 (ip), vehicle: saline): 94 % of control; T/C (dose: 50.0 mg/kg/injection, schedule: Q01DX024 (ip), vehicle: saline): 97 % of control; T/C (dose: 100.0 mg/kg/injection, schedule: Q01DX009 (ip), vehicle: saline): 94 % of control and 98 % of control and 106 % of control; T/C (dose: 100.0 mg/kg/injection, schedule: Q01DX012 (ip), vehicle: saline): 94 % of control and 101 % of control; T/C (dose: 100.0 mg/kg/injection, schedule: Q01DX024 (ip), vehicle: saline): 91 % of control and 99 % of control; T/C (dose: 100.0 mg/kg/injection, schedule: Q08HX120 (ip), vehicle: saline): 109 % of control; T/C (dose: 100.0 mg/kg/injection, schedule: Q#A X040 (ip), vehicle: saline): 91 % of control; T/C (dose: 200.0 mg/kg/injection, schedule: Q01DX009 (ip), vehicle: saline): 111 % of control and 103 % of control and 106 % of control; T/C (dose: 200.0 mg/kg/injection, schedule: Q01DX012 (ip), vehicle: saline): 96 % of control and 105 % of control; T/C (dose: 200.0 mg/kg/injection, schedule: Q01DX024 (ip), vehicle: saline): 97 % of control and 106 % of control; T/C (dose: 200.0 mg/kg/injection, schedule: Q08HX120 (ip), vehicle: saline): 110 % of control; T/C (dose: 200.0 mg/kg/injection, schedule: Q#A X040 (ip), vehicle: saline): 100 % of control; T/C (dose: 400.0 mg/kg/injection, schedule: Q01DX009 (ip), vehicle: saline): 117 % of control and 100 % of control and 105 % of control; T/C (dose: 400.0 mg/kg/injection, schedule: Q01DX012 (ip), vehicle: saline): 117 % of control and 102 % of control; T/C (dose: 400.0 mg/kg/injection, schedule: Q01DX024 (ip), vehicle: saline): 108 % of control and 104 % of control; T/C (dose: 400.0 mg/kg/injection, schedule: Q#A X040 (ip), vehicle: saline): 95 % of control; T/C (dose: 600.0 mg/kg/injection, schedule: Q#A X040 (ip), vehicle: saline): 95 % of control; T/C (dose: 800.0 mg/kg/injection, schedule: Q01DX009 (ip), vehicle: saline): 117 % of control; T/C (dose: 800.0 mg/kg/injection, schedule: Q01DX012 (ip), vehicle: saline): 116 % of control

How did the T/C (dose: 12.5 mg/kg/injection, schedule: Q01DX009 (ip), vehicle: Klucel (hydroxypropylcellulose) (HPC)) turn out when `CC(=O)OC(OC(C)=O)c1ccc([N+](=O)[O-])c([N+](=O)[O-])c1` was run?
Its T/C is 102 % of control.

And the T/C (dose: 25.0 mg/kg/injection, schedule: Q01DX009 (ip), vehicle: Klucel (hydroxypropylcellulose) (HPC))?
The T/C was 99 % of control.

And the T/C (dose: 50.0 mg/kg/injection, schedule: Q01DX009 (ip), vehicle: Klucel (hydroxypropylcellulose) (HPC))?
Its T/C is 102 % of control.

For `NNC(=S)N/N=C/c1ccccn1`, which T/C (dose: 1.56 mg/kg/injection, schedule: Q01DX009 (ip), vehicle: saline) is on record?
Its T/C is 91 % of control.

What about the T/C (dose: 1.56 mg/kg/injection, schedule: Q01DX009 (ip), vehicle: suspension in saline) of the same compound?
The T/C was 117 % of control.

And the T/C (dose: 3.12 mg/kg/injection, schedule: Q01DX009 (ip), vehicle: saline)?
The T/C was 109 % of control.

What about the T/C (dose: 3.12 mg/kg/injection, schedule: Q01DX009 (ip), vehicle: suspension in saline) of the same compound?
The T/C was 113 % of control.

What about the T/C (dose: 6.25 mg/kg/injection, schedule: Q01DX009 (ip), vehicle: saline) of the same compound?
The T/C was 94 % of control.

And the T/C (dose: 6.25 mg/kg/injection, schedule: Q01DX009 (ip), vehicle: suspension in saline)?
The T/C was 102 % of control.

And the T/C [1]?
The T/C was 105 % of control.

And the T/C (dose: 12.5 mg/kg/injection, schedule: Q01DX009 (ip), vehicle: suspension in saline)?
The T/C was 113 % of control.

What about the T/C [2] of the same compound?
The T/C was 98 % of control.

How did the T/C (dose: 1.56 mg/kg/injection, schedule: Q01DX009 (ip), vehicle: saline with Tween-80) turn out when `CCC1=C2C(=O)c3ccccc3C2=C(C)S(=O)(=O)O1` was run?
Its T/C is 98 % of control.

What about the T/C [3] of the same compound?
Its T/C is 98 % of control.

And the T/C [4]?
Its T/C is 91 % of control and 93 % of control.

Which T/C (dose: 0.12 mg/kg/injection, schedule: Q01DX009 (ip), vehicle: saline) does the source give for `CC[C@]1(O)C[C@H]2CN(CCc3c([nH]c4ccccc34)[C@@](C(=O)OC)(c3cc4c(cc3OC)N(C)[C@H]3[C@@](O)(C(=O)OC)[C@H](OC(C)=O)[C@]5(CC)C=CCN6CC[C@]43[C@@H]65)C2)C1` here?
Its T/C is 194 % of control.

And the T/C (dose: 0.12 mg/kg/injection, schedule: Q01DX009 (ip), vehicle: water)?
The T/C was 161 % of control.

And the T/C (dose: 0.25 mg/kg/injection, schedule: Q01DX009 (ip), vehicle: saline)?
The T/C was 234 % of control.

And the T/C (dose: 0.25 mg/kg/injection, schedule: Q01DX009 (ip), vehicle: water)?
Its T/C is 171 % of control and 199 % of control and 221 % of control.

What about the T/C (dose: 0.5 mg/kg/injection, schedule: Q01DX009 (ip), vehicle: saline) of the same compound?
The T/C was 215 % of control.

What about the T/C (dose: 0.5 mg/kg/injection, schedule: Q01DX009 (ip), vehicle: water) of the same compound?
The T/C was 176 % of control and 212 % of control and 309 % of control.

What about the T/C (dose: 15.62 micrograms/kg/injection, schedule: Q01DX009 (ip), vehicle: water) of the same compound?
Its T/C is 159 % of control.

And the T/C (dose: 31.25 micrograms/kg/injection, schedule: Q01DX009 (ip), vehicle: water)?
Its T/C is 154 % of control.

What about the T/C (dose: 62.5 micrograms/kg/injection, schedule: Q01DX009 (ip), vehicle: water) of the same compound?
Its T/C is 180 % of control.

What about the T/C (dose: 125.0 micrograms/kg/injection, schedule: Q01DX009 (ip), vehicle: water) of the same compound?
Its T/C is 206 % of control.

What about the T/C (dose: 250.0 micrograms/kg/injection, schedule: Q01DX009 (ip), vehicle: water) of the same compound?
Its T/C is 206 % of control.

For `OC1OC2COC(c3ccccc3)OC2C(O)C1O` (configuration not stated), which T/C (dose: 25.0 mg/kg/injection, schedule: Q01DX009 (ip), vehicle: water) is on record?
The T/C was 103 % of control.

And the T/C (dose: 50.0 mg/kg/injection, schedule: Q01DX009 (ip), vehicle: water)?
The T/C was 96 % of control.

What about the T/C (dose: 100.0 mg/kg/injection, schedule: Q01DX009 (ip), vehicle: water) of the same compound?
Its T/C is 110 % of control.

What about the T/C (dose: 200.0 mg/kg/injection, schedule: Q01DX009 (ip), vehicle: water) of the same compound?
The T/C was 98 % of control.

And the T/C (dose: 400.0 mg/kg/injection, schedule: Q01DX009 (ip), vehicle: water)?
Its T/C is 94 % of control.

What about the T/C (dose: 800.0 mg/kg/injection, schedule: Q01DX009 (ip), vehicle: water) of the same compound?
Its T/C is 93 % of control.

Which results are given for `COC1=CC(=O)C(OC)=C(OC)C1=O`?
T/C [3]: 97 % of control; T/C [4]: 92 % of control; T/C (dose: 12.5 mg/kg/injection, schedule: Q01DX009 (ip), vehicle: saline with Tween-80): 99 % of control

`COc1nc2c(=O)[nH]c(N)nc2n1C1OC(CO)C(O)C1O` (configuration not stated) was tested. Which T/C [5] did it give?
Its T/C is 96 % of control.

What about the T/C [6] of the same compound?
Its T/C is 93 % of control.

And the T/C (dose: 400.0 mg/kg/injection, schedule: Q01DX009 (ip), vehicle: saline with Tween-80)?
Its T/C is 91 % of control.

What does the source list for `CCC(/C=C/C1OC(=O)C=CC1C)=C\C(C)C/C=C/C(C)=C/C(C)C(=O)C(C)C(O)C(C)C/C(C)=C/C(=O)O` (configuration not stated)?
T/C (dose: 6.25 micrograms/kg/injection, schedule: Q01DX009 (sc), vehicle: other): 105 % of control; T/C (dose: 12.5 micrograms/kg/injection, schedule: Q01DX009 (ip), vehicle: other): 159 % of control; T/C (dose: 12.5 micrograms/kg/injection, schedule: Q01DX009 (ip), vehicle: saline + alcohol): 156 % of control and 198 % of control; T/C (dose: 12.5 micrograms/kg/injection, schedule: Q01DX009 (sc), vehicle: other): 102 % of control; T/C (dose: 25.0 micrograms/kg/injection, schedule: Q01DX009 (ip), vehicle: saline + alcohol): 165 % of control; T/C (dose: 25.0 micrograms/kg/injection, schedule: Q01DX009 (sc), vehicle: other): 115 % of control

Which T/C (dose: 50.0 mg/kg/injection, schedule: Q01DX009 (ip), vehicle: saline with Tween-80) does the source give for `NC(=O)SCC(N)C(=O)O` (configuration not stated) here?
Its T/C is 92 % of control.

And the T/C [5]?
Its T/C is 87 % of control.

And the T/C [6]?
Its T/C is 96 % of control.

With `O=NN(CCF)C(=O)NCCO` as the compound, how does the T/C (dose: 15.0 mg/kg/injection, schedule: Q01DX001 (ip), vehicle: saline) read?
Its T/C is 181 % of control.

And the T/C (dose: 30.0 mg/kg/injection, schedule: Q01DX001 (ip), vehicle: saline)?
Its T/C is 221 % of control.

And the T/C (dose: 60.0 mg/kg/injection, schedule: Q01DX001 (ip), vehicle: saline)?
The T/C was 250 % of control.

How did the T/C (dose: 100.0 mg/kg/injection, schedule: Q01DX009 (ip), vehicle: Klucel (hydroxypropylcellulose) (HPC)) turn out when `CC12C(=O)C=CCC1=CCC1C2CCC2(O)C(=O)OC3(C)C4CC5(C)C(COC16OC23C5C6=O)C(=O)O4` (configuration not stated) was run?
The T/C was 93 % of control.

And the T/C (dose: 200.0 mg/kg/injection, schedule: Q01DX009 (ip), vehicle: Klucel (hydroxypropylcellulose) (HPC))?
Its T/C is 98 % of control.
